From patent publication US11219623B2, “Inflammasome inhibition for the treatment of Parkinson's disease, Alzheimer's disease and multiple sclerosis” (University of Kentucky Research Foundation, priority 2015, dated 2022)
≈ marks a conversion by molar mass, not a printed value. Entries after “also recorded” stand apart in the source; their conditions may differ.

Assays:
[1] = test system: Caspase-1; experiment: Alu RNA-induced Caspase-1 activation, western blot, primary human RPE cells; type: cell-based; conditions: for Alu RNA-induced Caspase-1 activation/cleavage: concentration not given
Text: The bottom row in FIG. 5 is a vinculin loading control.

[2] = molecular target: T1, human P2X7 receptor (Homo sapiens, UniProt Q99572); conditions: HEK293 stably expressing human P2X7; concentration not given
T1 sequence (Q99572 1-595): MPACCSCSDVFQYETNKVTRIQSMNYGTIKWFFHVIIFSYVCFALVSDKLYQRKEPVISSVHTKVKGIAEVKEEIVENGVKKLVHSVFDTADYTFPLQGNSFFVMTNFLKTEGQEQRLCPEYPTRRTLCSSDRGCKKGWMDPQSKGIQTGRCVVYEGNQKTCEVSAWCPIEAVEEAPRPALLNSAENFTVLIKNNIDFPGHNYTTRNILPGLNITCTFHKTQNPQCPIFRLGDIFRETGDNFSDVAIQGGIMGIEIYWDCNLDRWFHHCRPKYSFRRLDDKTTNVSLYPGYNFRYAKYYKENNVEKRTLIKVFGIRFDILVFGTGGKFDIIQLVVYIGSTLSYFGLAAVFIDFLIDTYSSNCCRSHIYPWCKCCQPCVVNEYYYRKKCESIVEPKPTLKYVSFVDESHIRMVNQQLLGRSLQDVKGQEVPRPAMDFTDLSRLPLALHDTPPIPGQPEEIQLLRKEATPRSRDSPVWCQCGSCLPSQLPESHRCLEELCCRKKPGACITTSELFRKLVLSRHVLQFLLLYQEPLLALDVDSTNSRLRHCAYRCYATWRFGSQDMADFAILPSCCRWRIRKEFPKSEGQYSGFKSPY

[3] = LogP, partition coefficient in 1-octanol; type: physicochemical; conditions: 1-octanol partition
[4] = test system: wild-type mice; experiment: pAlu-induced RPE degeneration, mouse model of dry AMD; type: in vivo
Description: Mouse studies were conducted to study treatment with NRTIs or derivatives.

[5] = test system: human LINE-1 retrotransposon; experiment: EGFP cell culture L1 retrotransposition assay in HeLa cells; type: cell-based; conditions: 7 days after transfection, flow cytometry
Description: These findings pave way for the rational re-design and improvement of nucleoside analogs as novel therapeutics. The enhanced green fluorescent protein (EGFP) cell culture L1 retrotransposition assay was performed in HeLa cells. […] Transfected cells were selected in puromycin. 7 days after transfection, cells that underwent retrotransposition (EGFP-positive) were assayed by flow cytometry. Cells were gated based on background fluorescence of plasmid JM111, which has two point mutations in L1-ORF1 that abolish retrotransposition. Data are normalized with RPS set to 1.

[6] = test system: Raji TK^+ and Raji TK^− cells; experiment: Phosphorylation of AZT to AZT-triphosphate in Raji TK+ / TK− cells, LC-MS; type: in vitro ADME
Text: (§1) To determine whether LPS/ATP-induced inflammasome activation can be inhibited without RT inhibition, the present inventors utilized thymidine kinase-deficient (Raji/TK^−) and -expressing (Raji/TK^+) cells (Balzarini et al., 1989).
FIG. 50 is a standard curve of AZT-TP standards (black circle). […] FIG. 50 is representative of two experiments.

[7] = test system: IL-1 beta; experiment: LPS/ATP-induced IL-1 beta activation in Raji TK− and TK+ cells, western blot; type: cell-based
Text: as §1

[8] = test system: wild-type mice; experiment: Laser-induced choroidal neovascularization (CNV; wet AMD) in wild-type mice; conditions: N=16
[9] = test system: GFP-expressing lentivirus; experiment: GFP-expressing lentivirus transduction/replication assay in HeLa cells; type: cell-based; conditions: for lentivirus replication (GFP-positive cells per field): 10 μM, 72 hours, MOI 20
Description: All drugs were added at a concentration of 10 μM. Cells were imaged for GFP expression 72 hours after addition of lentivirus. GFP-positive cells per field of view were recorded. n=4-11, error bars S.E.M. Reverse transcription of lentivirus is essential for GFP expression; modified NRTIs should not block reverse transcriptase, whereas NRTIs are known to block reverse transcriptase.
The present disclosure further provides the results of additional experiments in FIG. 21-FIG. 23.

[10] = test system: Caspase-1; experiment: iGLuc luminescence assay of ATP-induced Caspase-1 activation in J774 iGLuc cells; type: cell-based, mouse; conditions: for Caspase-1 cleavage (luminescence): ATP 5 mM, N=3
Description: Caspase-1 is the enzyme at the core of the inflammasome complex and is an important danger response signal and mediator of RPE cell death in AMD. […] Importantly, there was some difference between individual compounds in terms of the dose response curve, emphasizing the need to test each compound (with unique R group(s)) individually.
To obtain the data set forth in FIGS. 64-73, an iGLuc assay was conducted (modified from Bartok et al. iGLuc: a luciferase-based inflammasome and protease activity reporter. Nature Methods 2013; 10(2):147-54). Briefly, 100,000 iGLuc cells per well were plated in a 96 well plate overnight. The next morning, media is aspirated from the plate and replaced with 75 μL of serum free DMEM with drugs (NRTIs or modified NRTIs) for 30 min. After 30 minutes of drug exposure, 20 mM ATP (25 μL) is added for a final concentration of 5 mM. 50 μL of media from each well is collected and 50 μL of coelenterazine 4.4 μM is added to each sample, and luminescence is read immediately.

[11] = test system: mice; experiment: Iron-induced RPE degeneration in mice; type: in vivo, mouse; conditions: intraperitoneal 25 mg/kg days 1 to 6; read day 7
[12] = test system: mtDNA; experiment: Relative quantity of mtDNA, quantitative PCR, primary human RPE cells; conditions: 50 μM; four days; relative to DMSO
[13] = test system: mice; experiment: Amyloid beta-induced RPE degeneration in mice; type: in vivo, mouse; conditions: intraperitoneal 25 mg/kg days 1 to 6; read day 7
[14] = test system: Caspase-1; experiment: Iron (III) ammonium citrate-induced Caspase-1 activation, western blot, primary human RPE cells; type: cell-based; conditions: 25 μM, Fe(III) ammonium citrate (100 μM)
Text: Caspase-1 activation (p20 subunit) in primary human retinal pigment epithelium (RPE) cells in the presence of iron (III) ammonium citrate was studied.
Caspase-1 activation (p10 subunit) in primary human RPE cells in the presence of iron (III) ammonium citrate was studied.
Alu RNA is a toxic endogenous retroelement that accumulates in and causes death of the RPE in patients with dry AMD. […] FAC activates Caspase-1 via an Alu RNA intermediate, and induces NLRP3-dependent RPE degeneration (Gelfand et al. Cell Reports 2015). Fe(III) ammonium citrate (100 μM)-induced Caspase-1 activation in primary human RPE cells, monitored by western blotting, is reduced by TM-3TC (25 μM), d4T-ene (25 μM), 2Me-d4T (25 μM), Me-AZT (25-100 μM), and 2Me-AZT (25 μM). N=3-4.

[15] = test system: wild-type mice; experiment: Poly IC-induced RPE degeneration in mice; type: in vivo, mouse; conditions: intravitreous; measured 7 days after poly IC
[16] = Solubility in water; type: physicochemical; conditions: aqueous buffer; Water pH 7.2 at 37° C.
[17] = test system: wild-type mice; experiment: Alu RNA-induced RPE degeneration, mouse model of dry AMD
[18] = test system: JR5558 mice; experiment: Spontaneous CNV in JR5558 mice, fluorescein angiography dye leakage; type: in vivo, mouse
Text: JR5558 mice develop spontaneous choroidal neovascularization (CNV) and are an animal model of wet/neovascular age-related macular degeneration (AMD). The activity of the CNV lesions can be monitored using fluorescein angiography to assess the degree of dye leakage from the lesions, as is done in humans with this disease. FIGS. 81 and 82 are representative images from two JR5558 mice (N=8). The first and third row of FIGS. 81 and 82 show time dependent dye leakage from pre-existing CNV lesions in the left eye (first row) and right eye (third row) of a first and second JR5558 mouse, respectively.

[19] = intraperitoneal 25 mg/kg twice daily

SMILES	Alu RNA-induced Caspase-1 activation/cleavage [1]	logP [3]	L1 retrotransposition (EGFP-positive cells) [5]	lentivirus replication (GFP-positive cells per field) [9]	Caspase-1 cleavage (luminescence) ([10]; drug 1 nM-100 μM)	Iron-induced RPE degeneration [11]	relative quantity of mtDNA (mtDNA depletion) [12]	pAlu-induced RPE degeneration [4, 19]	poly IC-induced RPE degeneration [15]	solubility [16] [µg/mL]	also measured
Cc1cn([C@H]2C[C@H](N=[N+]=[N-])[C@@H](CO)O2)c(=O)[nH]c1=O [AZT, 3′-azido-2′,3′-dideoxythymidine, reference compound]	block Caspase-1 cleavage	-0.41	blocked L1 retrotransposition	blocked lentivirus GFP expression	reduces Caspase-1 cleavage in a dose-dependent fashion	–	–	–	–	–	Alu RNA-induced Caspase-1 maturation ([1]; 50-100 uM, 24 hours after Alu administration): blocked; P2X7-dependent YO-PRO-1 uptake induced by bzATP [2]: inhibited P2X7-dependent uptake; pAlu-induced RPE degeneration ([4]; intraperitoneal administration, dose not stated): blocked RPE degeneration; formation of AZT-triphosphate (AZT-TP) ([6]; Raji TK+ cells): produced AZT-TP; formation of AZT-triphosphate (AZT-TP) ([6]; Raji TK− cells): not detectable; IL-1 beta activation by LPS/ATP ([7]; Raji TK+ cells): blocks IL-1 beta activation; IL-1 beta activation by LPS/ATP ([7]; Raji TK− cells): blocks IL-1 beta activation; laser injury-induced CNV volume ([8]; intravitreous 0.55 nmol): reduced laser injury-induced CNV volume
COCC1C=C[C@H](n2cc(C)c(=O)n(C)c2=O)O1 (stereo partly drawn) [Kamuvudine 2Me-d4T, 1-[(2R)-5-(methoxymethyl)-2,5-dihydrofuran-2-yl]-3,5-dimethyl-1,2,3,4-tetrahydropyrimidine-2,4-dione]	–	0.63	no effect on L1 activity	do not block lentivirus replication	–	blocked the development of RPE degeneration	do not exhibit mtDNA depletion	restored to healthy RPE morphology/intercellular junctions	blocks this degeneration	10000 (≈ 39.6 mM)	Amyloid beta-induced RPE degeneration [13]: blocked the development of RPE degeneration; iron-induced Caspase-1 activation [14]: reduced; iron-induced Caspase-1 activation ([14]; listed as 2me-d4T): blocked iron-induced Caspase-1 activation
COC[C@@H]1O[C@H](n2ccc(N(C)C)nc2=O)CS1 [Kamuvudine 3Me-3TC, 4-(dimethylamino)-1-[(2R,5S)-2-(methoxymethyl)-1,3-oxathiolan-5-yl]-1,2-dihydropyrimidin-2-one]	–	0.09	no effect on L1 activity	do not block lentivirus replication	reduces Caspase-1 cleavage in a dose-dependent fashion	–	do not reduce mtDNA	protects against RPE degeneration	–	7000 (≈ 25.8 mM)	Alu RNA induced Caspase-1 activation ([1]; 25-100 μM (25 and 100 μM), listed as TM-3TC): blocked Alu-induced Caspase-1 activation; also recorded: reduced; iron-induced Caspase-1 activation ([14]; listed as TM-3TC): blocked iron-induced Caspase-1 activation; also recorded: reduced; Alu RNA-induced RPE degeneration ([17]; intraperitoneal 25 mg/kg, twice daily for 6 days): protects against RPE degeneration; CNV lesion leakage compared to 3TC ([18]; 62.5 ng vs 125 ng 3TC): greater reduction in CNV lesion leakage; activity (dye leakage) of pre-existing CNV lesions ([18]; single intravitreous 62.5 ng, 3 days after administration): suppress the activity of pre-existing CNV lesions
COC[C@@H]1C=C[C@H](n2cc(C)c(=O)[nH]c2=O)O1 [Me-d4T, 1-[(2R,5S)-5-(methoxymethyl)-2,5-dihydrofuran-2-yl]-5-methyl-1,2,3,4-tetrahydropyrimidine-2,4-dione]	blocks Caspase-1 activation	0.41	no effect on L1 activity	do not block lentivirus replication	–	blocked the development of RPE degeneration	do not exhibit mtDNA depletion	–	blocks this degeneration	30000 (≈ 126 mM)	choroidal neovascularization (CNV) volume ([8]; intravitreous 0.14 nmol, day 7): reduced choroidal neovascularization (CNV) volume; Alu-induced RPE degeneration ([17]; intraperitoneal injection, dose not stated): prevents Alu-induced RPE degeneration; replication of GFP-expressing lentivirus ([9]; FIG. 22, concentration not given): does not block lentivirus replication; Caspase-1 cleavage (luminescence) ([10]; drug 100 μM): reduces Caspase-1 cleavage in a dose-dependent fashion; reduction of inflammasome activation ([10]; ATP (5 mM), mouse J774 iGLuc cells, FIGS. 70-73): about 70%
